# Measurements reported in ChEMBL document CHEMBL3885881, “DrugMatrix”.
# Organism: Rattus norvegicus
# Assay: DrugMatrix - Regimen: Daily Repeat
# Type: toxicity, organism-based, Sprague-Dawley
# Design: regimen Daily Repeat, gender Male, age 6-8 weeks
# Details: in vivo, po, route oral GAVAGE, vehicle 100 % WATER; for BASOPHIL / EOSINOPHIL / ERYTHROCYTE COUNT / HEMATOCRIT / HEMOGLOBIN / LEUKOCYTE COUNT / LYMPHOCYTE / MEAN CORPUSCULAR HEMOGLOBIN / MEAN CORPUSCULAR HEMOGLOBIN CONCENTRATION / MEAN CORPUSCULAR VOLUME / MONOCYTE / NEUTROPHIL / PLATELET COUNT: tissue Blood; for ALANINE AMINOTRANSFERASE / ALBUMIN / ALKALINE PHOSPHATASE / ASPARTATE AMINOTRANSFERASE / BLOOD UREA NITROGEN / CARBON DIOXIDE / CHLORIDE / CHOLESTEROL / CREATINE PHOSPHOKINASE / CREATININE / GLUCOSE / LACTATE DEHYDROGENASE / LIPASE / PHOSPHORUS / POTASSIUM / SODIUM / TOTAL BILIRUBIN / TOTAL PROTEIN / URIC ACID: tissue Plasma
# [1] = 0 mg/kg, 96 h, dose level Control, time 4 day
# [2] = 0 mg/kg, […], dose level Control, time 6 day
# [3] = 0 mg/kg, […], dose level Control, time 14 day
# [4] = 4000 mg/kg, 96 h, dose level High, time 4 day
# [5] = 4000 mg/kg, […], dose level High, time 6 day
# [6] = 4000 mg/kg, […], dose level High, time 14 day
structure (smiles),measurement,setting,value
CC(C)=O [ACETONE],BASOPHIL,[1],0.47%
same,EOSINOPHIL,[1],0.58%
same,ERYTHROCYTE COUNT,[1],6.84 x10E6/uL
same,HEMATOCRIT,[1],44.27%
same,HEMOGLOBIN,[1],14.08 G/DL
same,LEUKOCYTE COUNT,[1],13.39 x10E3/uL
same,LYMPHOCYTE,[1],83.57%
same,MEAN CORPUSCULAR HEMOGLOBIN,[1],20.57 pg
same,MEAN CORPUSCULAR HEMOGLOBIN CONCENTRATION,[1],31.77 G/DL
same,MEAN CORPUSCULAR VOLUME,[1],64.68 fL
same,MONOCYTE,[1],1.92%
same,NEUTROPHIL,[1],12.95%
same,PLATELET COUNT,[1],1533.67 x10E3/uL
same,ALANINE AMINOTRANSFERASE,[1],28.17 u/L
same,ALBUMIN,[1],3.82 G/DL
same,ALKALINE PHOSPHATASE,[1],354.33 u/L
same,ASPARTATE AMINOTRANSFERASE,[1],73.83 u/L
same,BLOOD UREA NITROGEN,[1],16 mg/dL
same,CARBON DIOXIDE,[1],27.17 mmol/L
same,CHLORIDE,[1],104.83 MEQ/L
same,CHOLESTEROL,[1],83.33 mg/dL
same,CREATINE PHOSPHOKINASE,[1],288 u/L
same,CREATININE,[1],0.33 mg/dL
same,GLUCOSE,[1],181.33 mg/dL
same,LACTATE DEHYDROGENASE,[1],173.17 u/L
same,LIPASE,[1],17.67 u/L
same,PHOSPHORUS,[1],11.5 mg/dL
same,POTASSIUM,[1],6.8 MEQ/L
same,SODIUM,[1],147 MEQ/L
same,TOTAL BILIRUBIN,[1],0.35 mg/dL
same,TOTAL PROTEIN,[1],6.35 G/DL
same,URIC ACID,[1],1.55 mg/dL
same,BASOPHIL,[2],0.33%
same,EOSINOPHIL,[2],0.85%
same,ERYTHROCYTE COUNT,[2],6.98 x10E6/uL
same,HEMATOCRIT,[2],38.58%
same,HEMOGLOBIN,[2],14.25 G/DL
same,LEUKOCYTE COUNT,[2],11.01 x10E3/uL
same,LYMPHOCYTE,[2],85.07%
same,MEAN CORPUSCULAR HEMOGLOBIN,[2],20.47 pg
same,MEAN CORPUSCULAR HEMOGLOBIN CONCENTRATION,[2],31.45 G/DL
same,MEAN CORPUSCULAR VOLUME,[2],64.9 fL
same,MONOCYTE,[2],1.9%
same,NEUTROPHIL,[2],11.42%
same,PLATELET COUNT,[2],1289.67 x10E3/uL
same,BASOPHIL,[3],0.52%
same,EOSINOPHIL,[3],0.55%
same,ERYTHROCYTE COUNT,[3],7.72 x10E6/uL
same,HEMATOCRIT,[3],51.87%
same,HEMOGLOBIN,[3],15.32 G/DL
same,LEUKOCYTE COUNT,[3],16.2 x10E3/uL
same,LYMPHOCYTE,[3],85.13%
same,MEAN CORPUSCULAR HEMOGLOBIN,[3],19.85 pg
same,MEAN CORPUSCULAR HEMOGLOBIN CONCENTRATION,[3],29.52 G/DL
same,MEAN CORPUSCULAR VOLUME,[3],67.17 fL
same,MONOCYTE,[3],1.7%
same,NEUTROPHIL,[3],11.6%
same,PLATELET COUNT,[3],1104.17 x10E3/uL
same,ALANINE AMINOTRANSFERASE,[2],28.17 u/L
same,ALBUMIN,[2],3.78 G/DL
same,ALKALINE PHOSPHATASE,[2],385.33 u/L
same,ASPARTATE AMINOTRANSFERASE,[2],78 u/L
same,BLOOD UREA NITROGEN,[2],16.83 mg/dL
same,CARBON DIOXIDE,[2],26.67 mmol/L
same,CHLORIDE,[2],106.83 MEQ/L
same,CHOLESTEROL,[2],82.67 mg/dL
same,CREATINE PHOSPHOKINASE,[2],225.5 u/L
same,CREATININE,[2],0.27 mg/dL
same,GLUCOSE,[2],179.5 mg/dL
same,LACTATE DEHYDROGENASE,[2],98.33 u/L
same,LIPASE,[2],14.67 u/L
same,PHOSPHORUS,[2],12.28 mg/dL
same,POTASSIUM,[2],7.03 MEQ/L
same,SODIUM,[2],150.33 MEQ/L
same,TOTAL BILIRUBIN,[2],0.38 mg/dL
same,TOTAL PROTEIN,[2],6.45 G/DL
same,URIC ACID,[2],1.6 mg/dL
same,ALANINE AMINOTRANSFERASE,[3],37 u/L
same,ALBUMIN,[3],4.13 G/DL
same,ALKALINE PHOSPHATASE,[3],342 u/L
same,ASPARTATE AMINOTRANSFERASE,[3],71 u/L
same,BLOOD UREA NITROGEN,[3],16.5 mg/dL
same,CARBON DIOXIDE,[3],28.17 mmol/L
same,CHLORIDE,[3],104 MEQ/L
same,CHOLESTEROL,[3],70.67 mg/dL
same,CREATINE PHOSPHOKINASE,[3],287.67 u/L
same,CREATININE,[3],0.38 mg/dL
same,GLUCOSE,[3],150.17 mg/dL
same,LACTATE DEHYDROGENASE,[3],81.33 u/L
same,LIPASE,[3],16 u/L
same,PHOSPHORUS,[3],11.32 mg/dL
same,POTASSIUM,[3],6.22 MEQ/L
same,SODIUM,[3],147.33 MEQ/L
same,TOTAL BILIRUBIN,[3],0.43 mg/dL
same,TOTAL PROTEIN,[3],6.55 G/DL
same,URIC ACID,[3],1.38 mg/dL
same,BASOPHIL,[4],0.37%
same,EOSINOPHIL,[4],0.2%
same,ERYTHROCYTE COUNT,[4],7.37 x10E6/uL
same,HEMATOCRIT,[4],47.5%
same,HEMOGLOBIN,[4],15.37 G/DL
same,LEUKOCYTE COUNT,[4],10.01 x10E3/uL
same,LYMPHOCYTE,[4],77.97%
same,MEAN CORPUSCULAR HEMOGLOBIN,[4],20.83 pg
same,MEAN CORPUSCULAR HEMOGLOBIN CONCENTRATION,[4],32.37 G/DL
same,MEAN CORPUSCULAR VOLUME,[4],64.47 fL
same,MONOCYTE,[4],2.73%
same,NEUTROPHIL,[4],18.23%
same,PLATELET COUNT,[4],1486.67 x10E3/uL
same,ALANINE AMINOTRANSFERASE,[4],47 u/L
same,ALBUMIN,[4],3.73 G/DL
same,ALKALINE PHOSPHATASE,[4],277.67 u/L
same,ASPARTATE AMINOTRANSFERASE,[4],87.33 u/L
same,BLOOD UREA NITROGEN,[4],12.67 mg/dL
same,CARBON DIOXIDE,[4],30.67 mmol/L
same,CHLORIDE,[4],103.33 MEQ/L
same,CHOLESTEROL,[4],117.33 mg/dL
same,CREATINE PHOSPHOKINASE,[4],390.33 u/L
same,CREATININE,[4],0.53 mg/dL
same,GLUCOSE,[4],176.33 mg/dL
same,LACTATE DEHYDROGENASE,[4],159 u/L
same,LIPASE,[4],27 u/L
same,PHOSPHORUS,[4],11 mg/dL
same,POTASSIUM,[4],5.6 MEQ/L
same,SODIUM,[4],149 MEQ/L
same,TOTAL BILIRUBIN,[4],0.27 mg/dL
same,TOTAL PROTEIN,[4],6.37 G/DL
same,URIC ACID,[4],1.23 mg/dL
same,BASOPHIL,[5],0.23%
same,EOSINOPHIL,[5],0.27%
same,ERYTHROCYTE COUNT,[5],7.31 x10E6/uL
same,HEMATOCRIT,[5],47.27%
same,HEMOGLOBIN,[5],14.77 G/DL
same,LEUKOCYTE COUNT,[5],10.16 x10E3/uL
same,LYMPHOCYTE,[5],86.07%
same,MEAN CORPUSCULAR HEMOGLOBIN,[5],20.17 pg
same,MEAN CORPUSCULAR HEMOGLOBIN CONCENTRATION,[5],31.23 G/DL
same,MEAN CORPUSCULAR VOLUME,[5],64.67 fL
same,MONOCYTE,[5],2.77%
same,NEUTROPHIL,[5],9.93%
same,PLATELET COUNT,[5],1168.67 x10E3/uL
same,BASOPHIL,[6],0.3%
same,EOSINOPHIL,[6],0.38%
same,ERYTHROCYTE COUNT,[6],8.11 x10E6/uL
same,HEMATOCRIT,[6],55.22%
same,HEMOGLOBIN,[6],16.28 G/DL
same,LEUKOCYTE COUNT,[6],7.38 x10E3/uL
same,LYMPHOCYTE,[6],78.4%
same,MEAN CORPUSCULAR HEMOGLOBIN,[6],20.06 pg
same,MEAN CORPUSCULAR HEMOGLOBIN CONCENTRATION,[6],29.48 G/DL
same,MEAN CORPUSCULAR VOLUME,[6],68.1 fL
same,MONOCYTE,[6],2.1%
same,NEUTROPHIL,[6],18.48%
same,PLATELET COUNT,[6],1123.2 x10E3/uL
same,ALANINE AMINOTRANSFERASE,[5],59.33 u/L
same,ALBUMIN,[5],3.83 G/DL
same,ALKALINE PHOSPHATASE,[5],274 u/L
same,ASPARTATE AMINOTRANSFERASE,[5],91.33 u/L
same,BLOOD UREA NITROGEN,[5],17.33 mg/dL
same,CARBON DIOXIDE,[5],27.67 mmol/L
same,CHLORIDE,[5],107 MEQ/L
same,CHOLESTEROL,[5],112 mg/dL
same,CREATINE PHOSPHOKINASE,[5],187.67 u/L
same,CREATININE,[5],0.37 mg/dL
same,GLUCOSE,[5],172.33 mg/dL
same,LACTATE DEHYDROGENASE,[5],78 u/L
same,LIPASE,[5],11.33 u/L
same,PHOSPHORUS,[5],12.07 mg/dL
same,POTASSIUM,[5],6.83 MEQ/L
same,SODIUM,[5],152 MEQ/L
same,TOTAL BILIRUBIN,[5],0.33 mg/dL
same,TOTAL PROTEIN,[5],6.57 G/DL
same,URIC ACID,[5],1.5 mg/dL
same,ALANINE AMINOTRANSFERASE,[6],84.2 u/L
same,ALBUMIN,[6],4.12 G/DL
same,ALKALINE PHOSPHATASE,[6],230.4 u/L
same,ASPARTATE AMINOTRANSFERASE,[6],95.6 u/L
same,BLOOD UREA NITROGEN,[6],15.2 mg/dL
same,CARBON DIOXIDE,[6],30.6 mmol/L
same,CHLORIDE,[6],104 MEQ/L
same,CHOLESTEROL,[6],129.2 mg/dL
same,CREATINE PHOSPHOKINASE,[6],256 u/L
same,CREATININE,[6],0.54 mg/dL
same,GLUCOSE,[6],144.8 mg/dL
same,LACTATE DEHYDROGENASE,[6],59 u/L
same,LIPASE,[6],22.2 u/L
same,PHOSPHORUS,[6],11.14 mg/dL
same,POTASSIUM,[6],6.2 MEQ/L
same,SODIUM,[6],149.8 MEQ/L
same,TOTAL BILIRUBIN,[6],0.42 mg/dL
same,TOTAL PROTEIN,[6],6.66 G/DL
same,URIC ACID,[6],1.5 mg/dL
